Where “and” joins values, the source holds several entries; their conditions need not be identical. Equal values may be shown once. Inconclusive results and toxic doses are left out. How the source made its calls: active means survival T/C of 150% or more; inactive means T/C below 125% in these data. Residues, ends and D or L forms follow the SMILES beside them. *: point of attachment. Cbz = O=C(OCc1ccccc1)*
Tested on: CD2F1 mice, L1210 leukemia ip, survival T/C
Test: NCI In Vivo Anticancer Drug Screen. Data for tumor model L1210 Leukemia (intraperitoneal) in CD2F1 (CDF1) mice
Details: endpoint: mean survival time, higher = longer survival
In short: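 Each value reflects a quotient of treated over vehicle control outcomes in mice with a transplanted tumor.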

[1] = dose: 100.0 mg/kg/injection, schedule: Q01DX001 (ip), vehicle: saline with Tween-80
[2] = dose: 100.0 mg/kg/injection, schedule: Q01DX009 (ip), vehicle: saline with Tween-80
[3] = dose: 200.0 mg/kg/injection, schedule: Q01DX001 (ip), vehicle: saline with Tween-80
[4] = dose: 200.0 mg/kg/injection, schedule: Q01DX009 (ip), vehicle: saline with Tween-80
[5] = dose: 400.0 mg/kg/injection, schedule: Q01DX001 (ip), vehicle: saline with Tween-80
[6] = dose: 400.0 mg/kg/injection, schedule: Q01DX009 (ip), vehicle: saline with Tween-80
[7] = dose: 100.0 mg/kg/injection, schedule: Q04DX003 (ip), vehicle: saline with Tween-80
[8] = dose: 200.0 mg/kg/injection, schedule: Q04DX003 (ip), vehicle: saline with Tween-80
[9] = dose: 400.0 mg/kg/injection, schedule: Q04DX003 (ip), vehicle: saline with Tween-80

Measured: T/C

CC(=O)Nc1cc2ccccc2c2ccc3ccccc3c12
inactive: [1] 89 % of control | [2] 96 % of control | [3] 93 % of control | [4] 95 % of control | [5] 102 % of control | [6] 96 % of control

CC(CCOP(=O)(N(C)C)N(CCCl)CCCl)OCc1ccccc1 (configuration not stated)
inactive: dose: 25.0 mg/kg/injection, schedule: Q01DX001 (ip), vehicle: other 101 % of control | dose: 50.0 mg/kg/injection, schedule: Q01DX001 (ip), vehicle: other 102 % of control | dose: 100.0 mg/kg/injection, schedule: Q01DX001 (ip), vehicle: other 98 % of control | dose: 200.0 mg/kg/injection, schedule: Q01DX001 (ip), vehicle: other 87 % of control | dose: 400.0 mg/kg/injection, schedule: Q01DX001 (ip), vehicle: other 95 % of control

COC(O)C1OC(c2ccccc2)OC2C(CO)OC(c3ccccc3)OC12 (configuration not stated)
inactive: [2] 90 % of control | [4] 90 % of control | [6] 90 % of control

CC(=O)Nc1ccc(N=NN(C)C)cc1
inactive: dose: 4.68 mg/kg/injection, schedule: Q01DX009 (ip), vehicle: Klucel (hydroxypropylcellulose) (HPC) 106 % of control and 109 % of control | dose: 9.37 mg/kg/injection, schedule: Q01DX009 (ip), vehicle: Klucel (hydroxypropylcellulose) (HPC) 114 % of control and 116 % of control

COC(=O)C(C)C1CCC2C3=CC=C4CC(OC(C)=O)CCC4(C)C3=CCC21C (configuration not stated)
inactive: dose: 100.0 mg/kg/injection, schedule: Q01DX001 (ip), vehicle: Klucel (hydroxypropylcellulose) (HPC) 98 % of control | dose: 200.0 mg/kg/injection, schedule: Q01DX001 (ip), vehicle: Klucel (hydroxypropylcellulose) (HPC) 92 % of control | dose: 400.0 mg/kg/injection, schedule: Q01DX001 (ip), vehicle: Klucel (hydroxypropylcellulose) (HPC) 92 % of control

COc1ncnc2c1cnn2C1OC(CO)C(O)C1O (configuration not stated)
inactive: dose: 12.5 mg/kg/injection, schedule: Q01DX005 (ip), vehicle: water 94 % of control | dose: 25.0 mg/kg/injection, schedule: Q01DX005 (ip), vehicle: water 96 % of control | dose: 50.0 mg/kg/injection, schedule: Q01DX005 (ip), vehicle: water 96 % of control | dose: 100.0 mg/kg/injection, schedule: Q01DX005 (ip), vehicle: water 104 % of control | dose: 200.0 mg/kg/injection, schedule: Q01DX005 (ip), vehicle: water 107 % of control

O=CNc1ccc(C(=O)O)cc1
inactive: [7] 94 % of control | [8] 94 % of control | [9] 100 % of control

O=c1[nH]c(-c2ccccc2)nc(-c2ccc(Cl)cc2)c1CCO
inactive: [2] 95 % of control | [4] 91 % of control | [8] 91 % of control | [6] 96 % of control | [9] 86 % of control

Nc1nc(NNC(=O)c2ccccc2)c2nonc2n1
inactive: dose: 12.5 mg/kg/injection, schedule: Q01DX005 (ip), vehicle: other 95 % of control | dose: 25.0 mg/kg/injection, schedule: Q01DX005 (ip), vehicle: other 95 % of control | dose: 50.0 mg/kg/injection, schedule: Q01DX005 (ip), vehicle: other 91 % of control | dose: 200.0 mg/kg/injection, schedule: Q01DX005 (ip), vehicle: other 91 % of control

CCN1CC2c3cc(OC)c(OC)cc3CC(c3ccccc3)C2C1 (configuration not stated)
inactive: dose: 12.5 mg/kg/injection, schedule: Q04DX003 (ip), vehicle: saline with Tween-80 108 % of control | dose: 25.0 mg/kg/injection, schedule: Q04DX003 (ip), vehicle: saline with Tween-80 104 % of control | dose: 50.0 mg/kg/injection, schedule: Q04DX003 (ip), vehicle: saline with Tween-80 92 % of control

CNNCc1c[nH]c(=O)[nH]c1=O
inactive: dose: 25.0 mg/kg/injection, schedule: Q01DX009 (ip), vehicle: water 110 % of control | dose: 50.0 mg/kg/injection, schedule: Q01DX009 (ip), vehicle: water 102 % of control | dose: 100.0 mg/kg/injection, schedule: Q01DX009 (ip), vehicle: water 102 % of control | dose: 200.0 mg/kg/injection, schedule: Q01DX009 (ip), vehicle: water 93 % of control | dose: 400.0 mg/kg/injection, schedule: Q01DX009 (ip), vehicle: water 100 % of control

CCCc1nc(N)[nH]c(=O)c1CCCCc1ccccc1
inactive: [7] 88 % of control | [8] 94 % of control | [9] 93 % of control

CCC(=O)c1cc(O)ccc1O
inactive: dose: 50.0 mg/kg/injection, schedule: Q01DX009 (ip), vehicle: other 109 % of control | dose: 100.0 mg/kg/injection, schedule: Q01DX001 (ip), vehicle: saline 101 % of control | dose: 100.0 mg/kg/injection, schedule: Q01DX009 (ip), vehicle: other 109 % of control | dose: 200.0 mg/kg/injection, schedule: Q01DX001 (ip), vehicle: saline 101 % of control | dose: 200.0 mg/kg/injection, schedule: Q01DX009 (ip), vehicle: other 108 % of control | dose: 400.0 mg/kg/injection, schedule: Q01DX001 (ip), vehicle: saline 102 % of control

CC(C)(C)N
inactive: [1] 100 % of control | [3] 97 % of control | [5] 97 % of control

c1ccc(Sc2ccc3ccccc3c2)cc1
inactive: [7] 98 % of control | [8] 101 % of control | [9] 91 % of control

O=S(=O)(OCC1C2CC3C(C2)C13)c1ccc(Br)cc1 (configuration not stated)
inactive: dose: 100.0 mg/kg/injection, schedule: Q04DX003 (ip), vehicle: other 101 % of control | dose: 200.0 mg/kg/injection, schedule: Q04DX003 (ip), vehicle: other 100 % of control | dose: 400.0 mg/kg/injection, schedule: Q04DX003 (ip), vehicle: other 91 % of control

C=C(C)c1ccc(C)c(C)c1
inactive: [2] 93 % of control | [4] 98 % of control | [6] 114 % of control

COc1ccc(CC(=O)NCCc2ccc3c(c2)OCO3)cc1
inactive: [1] 91 % of control | [3] 87 % of control

CCOc1cccc(Cc2cn(Cc3ccc(NC(=O)c4cccc(S(=O)(=O)F)c4)cc3)c(=O)[nH]c2=O)c1
inactive: dose: 75.0 mg/kg/injection, schedule: Q01DX001 (ip), vehicle: saline with Tween-80 94 % of control | dose: 150.0 mg/kg/injection, schedule: Q01DX001 (ip), vehicle: saline with Tween-80 89 % of control | dose: 300.0 mg/kg/injection, schedule: Q01DX001 (ip), vehicle: saline with Tween-80 94 % of control

Cc1ccc(S(=O)(=O)N(C)N=O)cc1
inactive: [2] 89 % of control | [7] 97 % of control | [4] 106 % of control | [8] 102 % of control | [6] 102 % of control | [9] 107 % of control

O=C(O)c1cc(Br)c(-c2c(Br)cc(C(=O)O)cc2[N+](=O)[O-])c([N+](=O)[O-])c1
inactive: [2] 98 % of control | [7] 86 % of control | [4] 100 % of control | [8] 94 % of control | [9] 91 % of control

O=C(O)CNC(=O)CNC(=O)CNC(=O)OCc1ccccc1 (Cbz-Gly-Gly-Gly-OH)
inactive: [7] 96 % of control | [8] 100 % of control | [9] 97 % of control

O=S(=O)(F)c1ccc2nc(-c3ccccc3)cc(Cl)c2c1
inactive: dose: 100.0 mg/kg/injection, schedule: Q01DX009 (ip), vehicle: saline 111 % of control | dose: 200.0 mg/kg/injection, schedule: Q01DX009 (ip), vehicle: saline 108 % of control | dose: 400.0 mg/kg/injection, schedule: Q01DX009 (ip), vehicle: saline 109 % of control

— PubChem BioAssay AID256 (DTP/NCI, 2004)
